# Source: US20040171622A1, “Cardioprotective delta opioid receptor agonists and methods of using same” (priority 2003, published 2004)
# Read-outs that look alike come from different tables or passages of the source.
# Tests used:
# rats [1] = test: Observation of seizures in tail pinch test animals; assay type: in vivo, rat; conditions: intravenous, up to 50 mg/kg
# Procedure: (§1) Analgesia was assayed in rats using the tail pinch test. Compound 1 was administered intravenously. Nociceptive response values were obtained for a 1-2 hour period. An artery clamp was placed on the tail (one inch from the tip of the tail) for a short duration until an escape response occurred (i.e. tail-flick or vocalization). The escape response latency was recorded by means of a stopwatch. A cutoff time of 20 sec. was used to prevent unnecessary tissue damage. […] The elapsed time to elicit a pain response was recorded as the tail pinch latency in seconds.
# (§2) Further, the compound acts predominately at peripheral delta opioid receptors.
# rats [2] = test: Tail pinch test for analgesia; assay type: in vivo, rat; conditions: intravenous
# Procedure: as §1, §2
# rats [3] = test: In vivo coronary artery occlusion and reperfusion, administration immediately prior to reperfusion; set-up: species or system rat; conditions: 0.3 mg/kg, administered at time of reperfusion
# [4] = system: hearts isolated from Sprague-Dawley rats; test: tissue or blood; set-up: species or system rat; conditions: for % IS/AAR: about 15 min prior to occlusion; for inhibition at 0.0001 µM / inhibition at 0.001 µM / inhibition at 0.01 µM: Rattus norvegicus, after 35 min regional ischemia and 120 min reperfusion; for inhibition at 0.0001 µM: 0.1 nM; for inhibition at 0.001 µM: 1.0 nM
# δ opioid receptor = biological target: T1, δ opioid receptor (Rattus norvegicus, UniProt P33533); test: Radioligand binding ([3H]Deltorphin II), rat brain membranes
# T1 construct: tissue Pel-Freeze Biological Inc. (Rogers, Ark.); host or cells: rat whole brain membranes
# T1 sequence (P33533 whole entry): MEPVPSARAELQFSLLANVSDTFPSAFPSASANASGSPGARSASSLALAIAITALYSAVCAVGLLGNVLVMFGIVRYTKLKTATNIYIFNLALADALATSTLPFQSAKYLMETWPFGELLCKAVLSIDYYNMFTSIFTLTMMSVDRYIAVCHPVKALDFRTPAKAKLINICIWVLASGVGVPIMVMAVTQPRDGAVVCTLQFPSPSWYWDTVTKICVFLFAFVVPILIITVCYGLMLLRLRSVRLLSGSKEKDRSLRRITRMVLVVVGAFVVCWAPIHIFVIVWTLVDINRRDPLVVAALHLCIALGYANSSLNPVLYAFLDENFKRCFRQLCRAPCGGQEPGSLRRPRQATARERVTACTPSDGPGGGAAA
# κ opioid receptor = biological target: T2, κ opioid receptor (Cavia porcellus, UniProt P41144); test: Radioligand binding ([3H]U69593), guinea pig cerebellum membranes
# T2 construct: tissue Pel-Freeze Biological Inc. (Rogers, Ark.); host or cells: guinea pig cerebellum membranes
# T2 sequence (P41144 whole entry): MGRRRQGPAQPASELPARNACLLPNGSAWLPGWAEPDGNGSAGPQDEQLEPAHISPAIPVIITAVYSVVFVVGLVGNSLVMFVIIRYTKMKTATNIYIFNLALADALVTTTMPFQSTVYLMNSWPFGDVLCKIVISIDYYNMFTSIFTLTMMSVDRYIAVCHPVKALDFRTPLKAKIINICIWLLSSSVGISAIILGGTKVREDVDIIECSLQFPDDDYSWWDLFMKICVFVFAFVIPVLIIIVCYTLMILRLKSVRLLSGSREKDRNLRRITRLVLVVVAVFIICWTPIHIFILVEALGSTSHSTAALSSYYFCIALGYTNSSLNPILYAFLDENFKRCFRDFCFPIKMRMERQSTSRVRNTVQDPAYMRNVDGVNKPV
# rats [5] = test: In vivo coronary artery occlusion (30 min) and reperfusion, pre-ischemic administration; set-up: species or system rat
# rats [6] = test: In vivo LAD coronary artery ligation (35 min) and reperfusion, infarct size, pretreatment 15 min prior; set-up: species or system rat; conditions: 1 mg/kg i.v.
# μ opioid receptor = biological target: T3, μ opioid receptor (Rattus norvegicus, UniProt P33535); test: Radioligand binding ([3H]DAMGO), rat brain membranes
# T3 construct: tissue Pel-Freeze Biological Inc. (Rogers, Ark.); host or cells: rat whole brain membranes
# T3 sequence (P33535 whole entry): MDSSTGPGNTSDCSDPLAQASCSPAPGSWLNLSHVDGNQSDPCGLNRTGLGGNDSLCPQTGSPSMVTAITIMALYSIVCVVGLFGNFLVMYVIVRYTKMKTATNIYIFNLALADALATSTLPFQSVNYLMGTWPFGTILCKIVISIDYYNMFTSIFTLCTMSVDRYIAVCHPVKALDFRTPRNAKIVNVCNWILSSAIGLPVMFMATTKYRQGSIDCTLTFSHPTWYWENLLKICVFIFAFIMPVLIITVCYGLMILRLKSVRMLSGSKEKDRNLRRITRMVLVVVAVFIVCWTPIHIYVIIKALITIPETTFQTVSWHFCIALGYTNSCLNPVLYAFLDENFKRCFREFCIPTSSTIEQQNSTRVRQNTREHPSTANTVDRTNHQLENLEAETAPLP
# [7] = 0.03 mg/kg i.v. 5 min prior to occlusion
# [8] = 0.3 mg/kg i.v. 5 min prior to occlusion
compound,measurement,setting,value
CCN(CC)C(=O)c1ccc([C@H](c2cccc(O)c2)N2C[C@@H](C)N(Cc3ccc(C(=O)O)cc3)C[C@@H]2C)cc1 [Compound 1],Seizures,rats [1],NONE
same,Seizures,rats [1]; listed as compound (1),no seizures were observed
same,ED50,"rats [2]; Rattus norvegicus, 20 sec cutoff",> 50 mg/kg
same,analgesic activity,rats [2],no analgesic activity
same,protection against control ischemic damage,rats [3],30-40%
same,reduction of infarct size relative to control group,"[4]; 1 nM acute pretreatment, one group, FIG. 1",71%
same,% IS/AAR,"[4]; 1 nM, isolated rat heart",18 ± 5%
same,% IS/AAR,"[4]; 2 nM, isolated rat heart",9 ± 2%
same,protection against damage present in control group (maximal protection),"[4]; 2 nM, isolated rat heart",~90%
same,% IS/AAR,"[4]; 10 nM, isolated rat heart",20 ± 6%
same,inhibition at 0.0001 µM,[4]; read-out: +dP/dt % inhibition,26%
same,inhibition at 0.0001 µM,[4]; read-out: CF % inhibition,43%
same,inhibition at 0.0001 µM,[4]; read-out: HRXDP % inhibition,32%
same,inhibition at 0.0001 µM,[4]; read-out: −dP/dt % inhibition,19%
same,inhibition at 0.001 µM,[4]; read-out: +dP/dt % inhibition,7%
same,inhibition at 0.001 µM,[4]; read-out: CF % inhibition,13%
same,inhibition at 0.001 µM,[4]; read-out: HRXDP % inhibition,17%
same,inhibition at 0.001 µM,[4]; read-out: −dP/dt % inhibition,10%
same,inhibition at 0.01 µM,"[4]; 10 nM, read-out: +dP/dt % inhibition",21%
same,inhibition at 0.01 µM,"[4]; 10 nM, read-out: CF % inhibition",38%
same,inhibition at 0.01 µM,"[4]; 10 nM, read-out: HRXDP % inhibition",32%
same,inhibition at 0.01 µM,"[4]; 10 nM, read-out: −dP/dt % inhibition",18%
same,"heart tissue functioning, % of normal (on the average)","[4]; pretreated hearts, some parameters up to 90%",at least 75%
same,Ki,δ opioid receptor,1.89 nM
same,Ki,κ opioid receptor,17400 nM
same,Study 1 (% IS/AAR),rats [5]; 0.01 mg/kg i.v. 5 min prior to occlusion,56 ± 5%
same,Study 1 (% IS/AAR),rats [5]; [7],44 ± 10%
same,Study 2 (% IS/AAR),rats [5]; [7],40 ± 3%
same,Study 2 (% IS/AAR),rats [5]; 0.1 mg/kg i.v. 5 min prior to occlusion,39 ± 3%
same,Study 1 (% IS/AAR),rats [5]; [8],35 ± 11%
same,Study 2 (% IS/AAR),rats [5]; [8],38 ± 3%
same,Study 1 (% IS/AAR),rats [5]; 1.0 mg/kg i.v. 5 min prior to occlusion,40 ± 8%
same,Reduction of Infarct Size Relative to Non treated Control,rats [6]; measurement 156 hours after administration (approximately 7 days),43%
same,Reduction of Infarct Size Relative to Non treated Control,rats [6]; measurement after acute administration,48%
same,Ki,μ opioid receptor,1520 nM
